The source of these data is EP4635949A1 (Jiangsu NHWA Pharmaceutical Co., Ltd, priority 2022, dated 2024).

Each structure is given as a SMILES string. pIC50: −log10 of the molar value. Where two headings read alike, the source gives them in different places. Marks after values point to notes of the source that are not given here.

Data set [1] has as its target T1, OX2 receptor (Homo sapiens, UniProt O43614).
T1 construct: host or cells: CHO-K1
T1 sequence (O43614 1-444): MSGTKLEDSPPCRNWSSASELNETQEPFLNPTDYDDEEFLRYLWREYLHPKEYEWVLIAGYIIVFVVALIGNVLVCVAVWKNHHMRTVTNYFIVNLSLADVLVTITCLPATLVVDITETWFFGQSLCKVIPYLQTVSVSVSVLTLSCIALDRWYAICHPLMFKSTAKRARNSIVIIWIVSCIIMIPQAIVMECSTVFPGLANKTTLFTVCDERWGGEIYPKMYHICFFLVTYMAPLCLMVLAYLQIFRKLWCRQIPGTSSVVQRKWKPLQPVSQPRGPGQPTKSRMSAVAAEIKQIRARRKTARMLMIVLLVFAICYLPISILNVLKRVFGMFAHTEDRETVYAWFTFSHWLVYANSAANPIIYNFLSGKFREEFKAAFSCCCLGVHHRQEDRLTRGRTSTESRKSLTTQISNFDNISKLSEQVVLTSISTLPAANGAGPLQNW
In words: Orexin target function test (Cisbio HTRF IP-one), CHO-K1-OX2 cells, antagonism of EC80 Orexin 2 receptor agonist. In kind it is cell-based. As for the experimental part:
(§1) Using Cisbio HTRF IP-one kit to detect the changes in IP-one concentration of orexin receptor (OX1/OX2) signaling pathway by microplate reader, and calculating the IC50 value of the compound to evaluate the antagonistic effect of the compound on OX1 and OX2 receptors.
(§2) The cells were centrifuged at 1000 rpm for 5 minutes and the supernatant was discarded. 3 mL of PBS was added, and gently blown with a pipette to mix. After centrifugation at 1000 rpm for 5 minutes again, the supernatant was discarded. […] Based on the antagonistic effect values of the compound samples at different concentrations, the GraphPad Prism software was used to fit the orexin receptor antagonism curve of the compound samples and calculate the IC50.
(In general: TR-FRET usually uses a lanthanide donor and a delayed reading to cut background.)

Data set [2] concerns SD rats. In words: Autonomous activity of rats. The data set is classed as in vivo. The method, then: The animals were placed in the test box immediately after administration, and the activity distance of the animals within 60 minutes was recorded and analyzed using Top Scan Version 3.0. […] The experimental data were expressed by mean ± standard deviation (Mean ± SD), and SPSS 21.0 statistical software was used for one-way analysis of variance. The Dunnett's test was used for pairwise comparison, and p<0.05 was represented as *.

The target in data set [3] is T2, OX1 receptor (Homo sapiens, UniProt O43613).
T2 construct: host or cells: CHO-K1
T2 sequence (O43613 1-425): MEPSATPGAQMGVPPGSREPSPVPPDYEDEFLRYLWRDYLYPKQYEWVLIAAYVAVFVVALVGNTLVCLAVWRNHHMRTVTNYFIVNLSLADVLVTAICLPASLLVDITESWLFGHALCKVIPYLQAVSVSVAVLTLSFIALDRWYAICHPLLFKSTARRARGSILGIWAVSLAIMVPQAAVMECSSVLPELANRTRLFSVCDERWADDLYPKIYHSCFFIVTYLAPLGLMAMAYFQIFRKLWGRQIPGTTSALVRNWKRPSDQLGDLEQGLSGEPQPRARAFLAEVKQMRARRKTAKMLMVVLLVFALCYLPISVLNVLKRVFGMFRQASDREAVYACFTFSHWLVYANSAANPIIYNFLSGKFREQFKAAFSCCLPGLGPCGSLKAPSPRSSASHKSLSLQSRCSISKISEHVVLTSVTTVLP
In words: Orexin target function test (Cisbio HTRF IP-one), CHO-K1-OX1 cells, antagonism of EC80 Orexin A. The data set is classed as cell-based. As for the experimental part: as §1, §2

The nature of data set [4]: in vivo. The following applies: rat.
Where [5] appears, read: CHO-K1-OX2 cells, IP-one, read-out: hOX2R IC50.
Setting [6] is: ratio of OX1R IC50 to OX2R IC50.
[7] abbreviates: CHO-K1-OX1 cells, IP-one, read-out: hOXIR IC50.
The mark [8] stands for this setting: male SD rats, dose 10 mg/kg, versus blank vehicle group.
The mark [9] stands for this setting: male SD rats, dose 10 mg/kg, within 60 minutes, Mean ± SD.
Where [10] appears, read: male SD rats, dose 30 mg/kg, versus blank vehicle group.
[11] abbreviates: male SD rats, dose 30 mg/kg, within 60 minutes, Mean ± SD.
[12] abbreviates: male SD rats, dose 50 mg/kg, versus blank vehicle group.
[13] abbreviates: male SD rats, dose 50 mg/kg, within 60 minutes, Mean ± SD.

For `COc1cc(-n2nccn2)c(C(=O)N2CC3C=C(c4nc(C)c(F)c(C)n4)CC3C2)cn1` (stereo not shown) [Compound 22], in data set [1], the pIC50 was 7.82 and the Selectivity is reported as 185. Besides, in data set [2] (rat, in vivo, 10 mg/kg), the “Activity distance (mm)” value is listed as 43970.97±9243.91 mm and the “Inhibition rate(%)” value is 38.10* %. Moreover, in data set [2] (rat, in vivo, 30 mg/kg), the “Activity distance (mm)” value is listed as 37396.46±6850.26 mm and the “Inhibition rate(%)” value is 47.35* %. In data set [2] (rat, in vivo, 50 mg/kg), the “Activity distance (mm)” value is listed as 33132.59±9708.72 mm and the “Inhibition rate(%)” value is reported as 56.36* %. In addition, in data set [3], the pIC50 was 5.56. In data set [4] (in vivo, iv, 1 mg/kg), this molecule came in with an AUC(0-t) of 0.305 µg·h/mL and a Cmax of 0.943 µg/mL. In data set [4] (in vivo, po, 30 mg/kg), this molecule registered an AUC(0-t) of 2.64 µg·h/mL, a Cmax of 1.94 µg/mL and a bioavailability of 28.9%.

For `COc1ccc(C(=O)N2CC3C=C(c4nc(C)cnc4OC)CC3C2)c(-c2ncccn2)c1` (stereo not shown) [Compound 48, [4-methoxy-2-(pyrimidin-2-yl)phenyl][5-(3-methoxy-6-methylpyrazin-2-yl)-3,3a,4,6a-tetrahydrocyclopenta[c]pyrrol-2(1H)-yl]methanone], the pIC50 in data set [1] (setting [5]) was 7.68. Further, the Selectivity in data set [1] (setting [6]) is on record as 154. Further, in data set [3] (setting [7]), the pIC50 was 5.49. In data set [4] (male, SD, plasma, iv, 1 mg/kg), the AUC(0-t) was 0.886 µg·h/mL and the concentration peaked (Cmax) at 3.31 µg/mL. In addition, in data set [4] (male, SD, plasma, po, 30 mg/kg), the AUC(0-t) was 10.1 µg·h/mL, the peak level (Cmax) was 9.41 µg/mL and the bioavailability was 37.8%.

With `Cc1nc(C2=CC3CN(C(=O)c4c(F)cccc4-n4nccn4)CC3C2)nc2c1COC2` (stereo not shown) [Compound 20, (2-fluoro-6-(2H-1,2,3-triazol-2-yl)phenyl)(5-(4-methyl-5,7-dihydrofuro[3,4-d]pyrimidin-2-yl)-3,3a,4,6a-tetrahydrocyclopenta[c]pyrrol-2(1H)-yl)methanone], the figures for the pIC50 in data set [1] (setting [5]) and in data set [3] (setting [7]) were 7.61 and 5.50, respectively. In data set [1] (setting [6]), the Selectivity is 129. The results for the “Inhibition rate(%)” value in data set [2] (setting [8]), in data set [2] (setting [10]) and in data set [2] (setting [12]) were 14.67%, 24.24* % and 31.17* %, respectively. The “Activity distance (mm)” value in data set [2] (setting [9]) is 60610.23±1657.26 mm; in data set [2] (setting [11]), 53815.36±1401.21 mm; in data set [2] (setting [13]), 48892.70±2164.16 mm.

As for `CCOc1ccc(C(=O)N2CC3C=C(c4nc(C)cnc4OC)CC3C2)c(-n2nccn2)c1` (stereo not shown) [Compound 45, [4-ethoxy-2-(2H-1,2,3-triazol-2-yl)phenyl][5-(3-methoxy-6-methylpyrazin-2-yl)-3,3a,4,6a-tetrahydrocyclopenta[c]pyrrol-2(1H)-yl]methanone], the pIC50 in data set [1] (setting [5]) is 7.60. Moreover, in data set [1] (setting [6]), the Selectivity turned out to be 125. Further, the pIC50 in data set [3] (setting [7]) is 5.52. Moreover, in data set [4] (male, SD, plasma, iv, 1 mg/kg), the AUC(0-t) is 1.56 µg·h/mL and the peak level (Cmax) was 2.52 µg/mL. For the same molecule, in data set [4] (male, SD, plasma, po, 30 mg/kg), the AUC(0-t) was found to be 36 µg·h/mL, the highest level (Cmax) was 19.6 µg/mL and the bioavailability is 77.1%.

In the case of `COc1nc(C2=CC3CN(C(=O)c4c(F)cccc4-n4nccn4)CC3C2)nc(C)c1F` (stereo not shown) [Compound 8, (5-(5-fluoro-4-methoxy-6-methylpyrimidin-2-yl)-3,3a,4,6a-tetrahydrocyclopenta[c]pyrrol-2(1H)-yl)(2-fluoro-6-(2H-1,2,3-triazol-2-yl)phenyl)methanone], the negative logarithm of the IC50 (pIC50) in data set [1] (setting [5]) is 7.92. Further, the Selectivity in data set [1] (setting [6]) is listed as 100. For the same molecule, the pIC50 in data set [3] (setting [7]) is 5.91. In data set [4] (male, SD, plasma, iv, 1 mg/kg), the AUC(0-t) came out at 0.807 µg·h/mL and the concentration peaked (Cmax) at 3.22 µg/mL. Also, in data set [4] (male, SD, plasma, po, 30 mg/kg), the AUC(0-t) came out at 16.9 µg·h/mL, the concentration peaked (Cmax) at 13.8 µg/mL and the bioavailability worked out at 69.8%.

For the molecule `COc1ncc(C)nc1C1=CC2CN(C(=O)c3ccc(F)cc3-n3cccn3)CC2C1` (stereo not shown) [Compound 61, [4-fluoro-2-(1H-pyrazol-1-yl)phenyl][5-(3-methoxy-6-methylpyrazin-2-yl)-3,3a,4,6a-tetrahydrocyclopenta[c]pyrrol-2(1H)-yl]methanone], in data set [1], the Selectivity is on record as 150. Besides, the pIC50 in data set [1] (setting [5]) is 7.85; in data set [3] (setting [7]) it was 5.68. Also, the AUC(0-t) in data set [4] (male, SD, plasma, iv, 1 mg/kg) came to 0.737 µg·h/mL; in data set [4] (male, SD, plasma, po, 30 mg/kg), 5.4 µg·h/mL. In addition, the Cmax worked out at 1.92 µg/mL in data set [4] (male, SD, plasma, iv, 1 mg/kg) and 5.69 µg/mL in data set [4] (male, SD, plasma, po, 30 mg/kg). This molecule showed a bioavailability in data set [4] (male, SD, plasma, po, 30 mg/kg) of 24.4%.

For `Cc1nc(C2=CC3CN(C(=O)c4c(F)cccc4-n4nccn4)CC3C2)nc(C)c1F` (stereo not shown) [Compound 1, (5-(5-fluoro-4,6-dimethylpyrimidin-2-yl)-3,3a,4,6a-tetrahydrocyclopenta[c]pyrrol-2(1H)-yl)(2-fluoro-6-(2H-1,2,3-triazol-2-yl)phenyl)methanone], in data set [1], the Selectivity turned out to be 80. Also, the pIC50 was 7.85 in data set [1] (setting [5]) and 5.95 in data set [3] (setting [7]). Moreover, the “Inhibition rate(%)” value in data set [2] (setting [8]) was 16.33%; in data set [2] (setting [10]), 23.37* %; in data set [2] (setting [12]), 59.81* %. Further, the “Activity distance (mm)” value amounted to 59434.65±1478.32 mm in data set [2] (setting [9]), 54433.35±3341.26 mm in data set [2] (setting [11]) and 28548.56±1238.05 mm in data set [2] (setting [13]).

Consider `[2H]C([2H])([2H])Oc1ncc(C)nc1C1=CC2CN(C(=O)c3ccc(OC)cc3-n3nccn3)CC2C1` (stereo not shown) [Compound 58, [4-methoxy-2-(2H-1,2,3-triazol-2-yl)phenyl][5-[3-(methoxy-d3)-6-methylpyrazin-2-yl]-3,3a,4,6a-tetrahydrocyclopentyl[c]pyrrol-2(1H)-yl]methanone], for which the pIC50 is 7.62 in data set [1] (setting [5]) and 5.70 in data set [3] (setting [7]). In addition, the Selectivity in data set [1] (setting [6]) is recorded as 83.

In data set [1], `[2H]C([2H])([2H])Oc1ccc(C(=O)N2CC3C=C(c4nc(C)c(F)c(C)n4)CC3C2)c(-n2nccn2)c1` (stereo not shown) [Compound 36, (5-(5-fluoro-4,6-dimethylpyrimidin-2-yl)-3,3a,4,6a-tetrahydrocyclopenta[c]pyrrol-2(1H)-yl)(4-(methoxy-d3)-2-(2H-1,2,3-triazol-2-yl)phenyl)methanone] showed a pIC50 of 7.74 and a Selectivity of 172. The molecule further gave a pIC50 in data set [3] of 5.51.

Regarding `Cc1nc(C2=CC3CN(C(=O)c4c(F)cccc4-n4nccn4)CC3C2)nc(C)c1CF` (stereo not shown) [Compound 38, (2-fluoro-6-(2H-1,2,3-triazol-2-yl)phenyl)(5-(5-(fluoromethyl)-4,6-dimethylpyrimidin-2-yl)-3,3a,4,6a-tetrahydrocyclopenta[c]pyrrol-2(1H)-yl)methanone], the values for the pIC50 in data set [1] (setting [5]) and in data set [3] (setting [7]) were 7.66 and 5.74, respectively. The Selectivity in data set [1] (setting [6]) was 82.

Consider `COc1ccc(C(=O)N2C[C@H]3CC(c4nc(Cl)cnc4OC)=C[C@H]3C2)c(-n2nccn2)c1` (relative stereo) [Compound 54], for which the pIC50 in data set [1] (setting [5]) is 7.66; in data set [3] (setting [7]), 5.59. In data set [1] (setting [6]), the Selectivity amounted to 118.

`COc1ccc(C(=O)N2CC3C=C(c4nc(OC)cnc4OC)CC3C2)c(-n2nccn2)c1` (stereo not shown) [Compound 53, [5-(3,6-dimethoxypyrazin-2-yl)-3,3a,4,6a-tetrahydrocyclopenta[c]pyrrol-2(1H)-yl][4-methoxy-2-(2H-1,2,3-triazol-2-yl)phenyl]methanone]: the pIC50 in data set [1] (setting [5]) is 7.49; in data set [3] (setting [7]), 5.54. Further, in data set [1] (setting [6]), the Selectivity is 89.

For orientation: pIC50 means −log10 of the IC50, conventionally taken in molar units. What is called AUC(0-t) is exposure summed from dosing to a finite time, without extrapolation to infinity. Read a high AUC(0-t) as high exposure. As a reminder, the Cmax is the highest concentration seen after dosing. The bioavailability is dose-corrected exposure relative to a reference, in per cent. Low readings indicate poor availability, high ones good availability.
